Among the data in ChEMBL document CHEMBL6083267, “Rational fragment-based design of compounds targeting the PWWP domain of the HRP family” (Eur J Med Chem, 2024) are Kd values, retold here.

The experiment addresses PC4 and SFRS1-interacting protein (Homo sapiens, UniProt O75475).

A word on the Kd: it is the concentration at which binding is half-saturated.

PC4 and SFRS1-interacting protein, sequence (O75475 whole entry): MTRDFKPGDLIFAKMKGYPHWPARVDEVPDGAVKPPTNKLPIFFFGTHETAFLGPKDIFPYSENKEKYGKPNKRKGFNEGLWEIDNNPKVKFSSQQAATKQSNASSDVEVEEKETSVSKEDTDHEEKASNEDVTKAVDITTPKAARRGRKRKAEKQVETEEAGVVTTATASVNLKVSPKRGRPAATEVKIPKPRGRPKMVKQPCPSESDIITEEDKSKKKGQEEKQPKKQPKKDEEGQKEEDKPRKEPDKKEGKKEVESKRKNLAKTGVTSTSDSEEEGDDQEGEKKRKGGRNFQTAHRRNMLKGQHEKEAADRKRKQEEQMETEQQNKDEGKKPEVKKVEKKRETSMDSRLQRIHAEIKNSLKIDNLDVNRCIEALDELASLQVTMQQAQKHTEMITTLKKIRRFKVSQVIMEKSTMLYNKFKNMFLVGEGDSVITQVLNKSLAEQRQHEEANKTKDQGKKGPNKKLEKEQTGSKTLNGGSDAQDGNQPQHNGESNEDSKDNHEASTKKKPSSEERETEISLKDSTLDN
Description: Binding affinity to N-terminal His10-tagged LEDGF/P75 PWWP domain (1 to 110 residues) (unknown origin) expressed in Escherichia coli assessed as dissociation constant incubated for overnight by NMR analysis

In turn, `Nc1ccc(CNCc2cncc(Br)c2)cc1` yielded a dissociation constant Kd of 147 µM.

Consider `NC(=O)CCN1CCCC1c1ccccc1` (stereo unspecified), for which binding was put at a Kd of 363 µM.

`CCS(=O)(=O)c1ccccc1NC(=O)COc1cccc(CC(=O)O)c1`: the dissociation constant (Kd) was found to be 590 µM.

Consider `CCS(=O)(=O)c1ccc(C2CCCCN2)cc1` (stereo unspecified), for which binding was put at a Kd of 526 µM.

In turn, `NCc1cncc(Br)c1` yielded a dissociation constant Kd of 216 µM.

In turn, `CCS(=O)(=O)c1ccccc1NC(=O)CCl` yielded a Kd of 700 µM.
